US20140031217A1, “HERBICIDAL COMPOSITIONS COMPRISING 4-AMINO-3-CHLORO-5-FLUORO-6-(4-CHLORO-2-FLUORO-3-METHOXYPHENYL)PYRIDINE-2-CARBOXYLIC ACID OR A DERIVATIVE THEREOF AND AUXIN TRANSPORT INHIBITORS” (DOW AGROSCIENCES LLC, priority 2012, published 2014)

Legend:
IPOHE = assay: Postemergence foliar-applied greenhouse weed control, IPOHE; assay type: in vivo, Ipomoea hederacea Jacq.
Excerpt: Seeds or nutlets of the desired test plant species were planted in a soil matrix prepared by mixing a loam or sandy loam soil (e.g., 28.6 percent silt, 18.8 percent clay, and 52.6 percent sand, with a pH of about 5.8 and an organic matter content of about 1.8 percent) and calcareous grit in an 80 to 20 ratio. The soil matrix was contained in plastic pots with a volume of 1 quart and a surface area of 83.6 square centimeters (cm^2). When required to ensure good germination and healthy plants, a fungicide treatment and/or other chemical or physical treatment was applied. The plants were grown for 8-22 days in a greenhouse with an approximate 14 h photoperiod which was maintained at about 29° C. during the day and 26° C. during the night. Nutrients (Peters Excel® 15-5-15 5-Ca 2-Mg and iron chelate) were applied in the irrigation solution as needed and water was added on a regular basis. Supplemental lighting was provided with overhead metal halide 1000-Watt lamps as necessary. The plants were employed for testing when they reached the first through fourth true leaf stage.
Treatments consisted of the acid or esters of 4-amino-3-chloro-5-fluoro-6-(4-chloro-2-fluoro-3-methoxy-phenyl) pyridine-2-carboxylic acid (Compound A), each formulated as an SC (suspension concentrate), and various herbicidal components alone and in combination. Forms of compound A were applied on an acid equivalent basis.
Other herbicidal components were applied on an active ingredient basis and included auxin transport inhibiting (ATI) herbicides chlorflurenol (technical material), chlorflurenol-methyl (technical material), diflufenzopyr (technical material), diflufenzopyr sodium (technical material), flurenol-methyl (technical material) and naptalam (technical material).
Treatment requirements were calculated based upon the rates being tested, the concentration of active ingredient or acid equivalent in the formulation, and a 12 mL application volume at a rate of 187 L/ha.
For treatments comprised of formulated and technical compounds, weighed amounts of the technical materials were placed individually in 25 mL glass vials and dissolved in a volume of 97:3 v/v acetone/DMSO to obtain 12× stock solutions, and measured amounts of the formulated compounds were placed individually in 25 mL glass vials and diluted in a volume of 1.5% (v/v) crop oil concentrate or water to obtain 12× stock solutions. […] Application solutions were prepared by adding an appropriate amount of each stock solution (e.g., 1 mL) and diluted to the appropriate final concentrations with the addition of an appropriate amount of an aqueous mixture of 1.5% (v/v) crop oil concentrate so that the final spray solutions contained 1.25% (v/v) crop oil concentrate. When required, additional water and/or 97:3 v/v acetone/DMSO was added to individual application solutions so that the final acetone and DMSO concentrations of the application solutions being compared were 8.1% and 0.25%, respectively.
All stock solutions and applications solutions were visually inspected for compound compatibility prior to application. Spray solutions were applied to the plant material with an overhead Mandel track sprayer equipped with an 8002E nozzle calibrated to deliver 187 L/ha over an application area of 0.503 m^2 at a spray height of 18 to 20 inches (46 to 50 cm) above average plant canopy height. Control plants were sprayed in the same manner with the solvent blank.
The treated plants and control plants were placed in a greenhouse as described above and watered by sub-irrigation to prevent wash-off of the test compounds. After approximately 3 weeks, the condition of the test plants as compared with that of the untreated plants was determined visually and scored on a scale of 0 to 100 percent where 0 corresponds to no injury or growth inhibition and 100 corresponds to complete kill. […]

ECHCG = assay: In-water applied (paddy) greenhouse weed control, ECHCG; assay type: in vivo, Echinochloa crusgalli (L.) Beauv.
Procedure: Weed seeds or nutlets of the desired test plant species were planted in puddled soil (mud) prepared by mixing a shredded, non-sterilized mineral soil (50.5 percent silt, 25.5 percent clay, and 24 percent sand, with a pH of about 7.6 and an organic matter content of about 2.9 percent) and water at a 1:1 volumetric ratio. The prepared mud was dispensed in 365 mL aliquots into 16-ounce (oz.) non-perforated plastic pots with a surface area of 86.59 square centimeters (cm^2) leaving a headspace of 3 centimeters (cm) in each pot. Mud was allowed to dry overnight prior to planting or transplanting. Rice seeds were planted in Sun Gro MetroMix® 306 planting mixture, which typically has a pH of 6.0 to 6.8 and an organic matter content of about 30 percent, in plastic plug trays. Seedlings at the second or third leaf stage of growth were transplanted into 840 mL of mud contained in 32-oz. non-perforated plastic pots with a surface area of 86.59 cm^2 4 days prior to herbicide application. The paddy was created by filling the headspace of the pots with 2.5 to 3 cm of water. When required to ensure good germination and healthy plants, a fungicide treatment and/or other chemical or physical treatment was applied. The plants were grown for 4-22 days in a greenhouse with an approximate 14 h photoperiod which was maintained at about 29′C during the day and 26° C. during the night. Nutrients were added as Osmocote® (19:6:12, N:P:K+minor nutrients) at 2 g per 16-oz. pot and 4 g per 960-mL 32-oz. pot. Water was added on a regular basis to maintain the paddy flood, and supplemental lighting was provided with overhead metal halide 1000-Watt lamps as necessary. The plants were employed for testing when they reached the second or third true leaf stage.
Treatments consisted of the acid or esters of 4-amino-3-chloro-5-fluoro-6-(4-chloro-2-fluoro-3-methoxy-phenyl)pyridine-2-carboxylic acid (compound A) each formulated as an SC and various herbicidal components alone and in combination. Forms of compound A were applied on an acid equivalent basis.
Other herbicidal components were applied on an active ingredient basis and included auxin transport inhibiting (ATI) herbicides chlorflurenol-methyl (technical material), chlorflurenol (technical material), diflufenzopyr (technical material), dilfufenzopyr sodium (technical material), flurenol-methyl (technical material,) and naptalam (technical material).
Treatment requirements for each compound or herbicidal component were calculated based upon the rates being tested, the concentration of active ingredient or acid equivalent in the formulation, an application volume of 2 mL per component per pot, and an application area of 86.59 cm^2 per pot.
For formulated compounds, a measured amount was placed in an individual 100 or 200 mL glass vial and was dissolved in a volume of 1.25% (v/v) Agri-Dex® crop oil concentrate to obtain application solutions.
For technical grade compounds, a weighed amount was placed in an individual 100 to 200 mL glass vial and was dissolved in a volume of acetone to obtain concentrated stock solutions. […] The concentrated stock solutions obtained were diluted with an equivalent volume of an aqueous mixture containing 2.5% (v/v) crop oil concentrate so that the final application solutions contained 1.25% (v/v) crop oil concentrate.
Applications were made by injecting with a pipetter appropriate amounts of the application solutions, individually and sequentially, into the aqueous layer of the paddy. Control plants were treated in the same manner with the solvent blank. Applications were made so that all treated plant material received the same concentrations of acetone and crop oil concentrate.
The treated plants and control plants were placed in a greenhouse as described above and water was added as needed to maintain a paddy flood. […]

COc1c(Cl)ccc(-c2nc(C(=O)O)c(Cl)c(N)c2F)c1F [Compound A Acid, 4-amino-3-chloro-6-(4-chloro-2-fluoro-3-methoxyphenyl)-5-fluoropyridine-2-carboxylic acid]
Visual Weed Control (%) Obs (IPOHE; 20 DAA, 4.38 gae/ha): 20%
Visual Weed Control (%) Obs (IPOHE; 20 DAA, 8.75 gae/ha): 20%
Visual Weed Control (%) Obs (IPOHE; 20 DAA, 17.5 gae/ha): 50%
Visual Weed Control (%) Obs (ECHCG; 20 DAA, 17.5 gae/ha): 50%
Visual Weed Control (%) Obs (ECHCG; 20 DAA, 35 gae/ha): 95%
Visual Weed Control (%) Obs (ECHCG; 22 DAA, 8.75 gae/ha): 0%
Visual Weed Control (%) Obs (ECHCG; 22 DAA, 17.5 gae/ha): 15%
Visual Weed Control (%) Obs (ECHCG; 22 DAA, 35 gae/ha): 15%

COc1c(Cl)ccc(-c2nc(C(=O)OCc3ccccc3)c(Cl)c(N)c2F)c1F [Compound A Benzyl Ester]
Visual Weed Control (%) Obs (IPOHE; 20 DAA, 4.38 gae/ha): 10%
Visual Weed Control (%) Obs (IPOHE; 20 DAA, 8.75 gae/ha): 15%
Visual Weed Control (%) Obs (IPOHE; 21 DAA, 4.38 gae/ha): 10%
Visual Weed Control (%) Obs (IPOHE; 21 DAA, 8.75 gae/ha): 10%
Visual Weed Control (%) Obs (IPOHE; 21 DAA, 17.5 gae/ha): 25%
Visual Weed Control (%) Obs (IPOHE; 22 DAA, 8 gae/ha): 0%
Visual Weed Control (%) Obs (IPOHE; 22 DAA, 16 gae/ha): 25%
Visual Weed Control (%) Obs (IPOHE; 22 DAA, 32 gae/ha): 50%
Visual Weed Control (%) Obs (ECHCG; 19 DAA, 8 gae/ha): 30%
Visual Weed Control (%) Obs (ECHCG; 19 DAA, 16 gae/ha): 20%
Visual Weed Control (%) Obs (ECHCG; 19 DAA, 32 gae/ha): 40%
Visual Weed Control (%) Obs (ECHCG; 20 DAA, 4.38 gae/ha): 40%
Visual Weed Control (%) Obs (ECHCG; 22 DAA, 4.38 gae/ha): 10%
Visual Weed Control (%) Obs (ECHCG; 22 DAA, 8.75 gae/ha): 25%
Visual Weed Control (%) Obs (ECHCG; 22 DAA, 17.5 gae/ha): 60%
